As usually defined, the EC50 is the concentration giving half of the maximal effect. By IC50 is commonly meant the point on the concentration scale where inhibition reaches its midpoint. A higher IC50 goes with weaker potency.

In patent publication US10030016B2 (Sunesis Pharmaceuticals, Inc., priority 2009, dated 2018) one finds EC50 and IC50 data, which are given here for 25 molecules.

Counter-ions that a name gives are not always drawn. Like-named read-outs stand apart in the source and are kept apart here. Bounds are passed on as bounds.

Assay [1] has as its system phospho-akt (Thr308) in PC-3 cells. The assay is described as follows: Inhibition of phospho-akt (Thr308) in PC-3 cells, MSD phospho-akt 308 ELISA kit. In kind it is cell-based. The note with it: Homo sapiens, 2 hours, no serum, read-out: EC50. In a few lines:
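Read-out is MSD electrochemiluminescence of Akt phosphorylated at Thr308 in lysates of PC-3 cells treated 2 h with compound in serum-free medium. Wortmannin at 5 μM defined the low control and DMSO the high control.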
For orientation: An ELISA detects its analyte on a solid surface through an enzyme-linked reagent.

The target in another assay is PDK1 (Homo sapiens (Human), UniProt O15530). Put plainly: PDK1 kinase assay (coupled PDK1/AKT/FAM-crosstide assay, IMAP fluorescence polarization). It counts as biochemical. In a few lines:
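Inhibition is derived by 4-parameter fitting of ΔmP from an IMAP fluorescence polarization read of FAM-crosstide (100 nM) phosphorylation. The cascade ran 30 min at 25 °C with 40 μM ATP, using insect-cell GST-PDK1 51-359 (0.75 nM) driving 10 nM unphosphorylated AKT2 140-467-PIFtide fusion.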
In general terms: Fluorescence polarisation rises when a labelled molecule tumbles more slowly, as on binding a larger partner.

[2] abbreviates: PC-3, 2 h, inhibition of P308 Akt in PC-3 cells using MSD.
The mark [3] stands for this setting: inhibition of P308 Akt in PC-3 cells using MSD.
The mark [4] stands for this setting: inhibition of P308 Akt in PC-3 cells, MSD.
Setting [5] is: inhibition of phospo-PDK1 in vitro.

Chain of PDK1 (O15530 51-359): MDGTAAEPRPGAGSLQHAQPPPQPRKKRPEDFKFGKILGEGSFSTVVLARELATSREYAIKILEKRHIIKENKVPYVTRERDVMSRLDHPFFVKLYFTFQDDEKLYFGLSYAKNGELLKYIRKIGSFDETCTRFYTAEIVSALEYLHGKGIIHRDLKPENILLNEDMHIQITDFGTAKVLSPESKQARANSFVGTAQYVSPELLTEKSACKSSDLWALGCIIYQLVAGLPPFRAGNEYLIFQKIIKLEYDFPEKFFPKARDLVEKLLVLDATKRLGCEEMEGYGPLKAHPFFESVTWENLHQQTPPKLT

As for `C[C@H](NC(=O)c1cc(C#N)cnc1N[C@H](CC(=O)N(C)C)c1ccc(-c2c[nH]c3ncnc(N)c23)cc1)c1ccc(F)cc1` [Example 48, 2-((R)-1-(4-(4 - amino-7H-pyrrolo[2,3-d]pyrimidin-5-yl)phenyl)-3-(dimethylamino)-3-oxopropylamino)-5-cyano-N-((S)-1-(4-fluorophenyl)ethyl)nicotinamide], in assay [1] (setting [2]), the concentration giving a half-maximal response (EC50) lay in the range of 1000 to 10000 nM. This molecule also registered an IC50 at PDK1 (inhibition of PDK1 in vitro) of 100 to 1000 nM.
Regarding `Nc1n[nH]c2ncc(-c3ccc(CNc4ncc(C(F)(F)F)cc4C(=O)NCC4CCCC4)cc3)cc12` [Example 264, 2-(4-(3-amino-1H-pyrazolo [3,4-b]pyridin-5-yl)benzylamino)-N-(cyclopentylmethyl)-5-(trifluoromethyl) nicotinamide], in assay [1] (setting [3]), the EC50 lay in the range of 1000 to 10000 nM. Further, the half-inhibitory concentration (IC50) against PDK1 (inhibition of PDK1 in vitro) was under 100 nM.
As for `O=C(NCc1ccc(F)c(F)c1)c1cccnc1NCc1ccc(-c2ccc3ncnc(N4CCOCC4)c3c2)s1` [Example 4.11, N-(3,4-difluorobenzyl)-2-(((5-(4-morpholinoquinazolin-6-yl)thiophen-2-yl)methyl)amino)nicotinamide], the EC50 in assay [1] (setting [4]) was over 10000 nM. Also, at PDK1 (setting [5]), the half-maximal inhibitory concentration (IC50) was under 100 nM.
With `C[C@H](NC(=O)c1cc(C#N)cnc1NCc1ccc(-c2cnc(N)nc2)cc1)c1ccc(F)cc1` [Example 119, (S)-2-(4-(2-amino-pyrimidin-5-yl)benzylamino)-5-cyano-N-(1-(4-fluorophenyl)ethyl) nicotinamide], in assay [1] (setting [3]), the concentration for a half-maximal effect (EC50) is over 10000 nM. The molecule further returned an IC50 on PDK1 (inhibition of PDK1 in vitro) of under 100 nM.
Consider `O=C1Nc2cc(OCCNc3ncccc3C(=O)NCc3ccc(F)cc3)ccc2/C1=C/c1cnc[nH]1` [Example 23, (Z)-2-(2-(3-((1H-imidazol-5-yl)methylene)-2-oxoindolin-6-yloxy)ethylamino)-N-(4-fluorobenzyl)nicotinamide], for which the half-maximal effective concentration (EC50) in assay [1] (setting [4]) was under 1000 nM. This molecule also displayed an IC50 against PDK1 (setting [5]) of under 100 nM.
Regarding `Cn1cnc2cnc(-c3ccc(CNc4nc5ccccc5cc4C(=O)NCc4ccc(F)c(F)c4)s3)cc21` [Example 8.14.2, N-(3,4-difluorobenzyl)-2-({[5-(1-methyl-1H-imidazo [4,5-c]pyridin-6-yl)thiophen-2-yl]methyl}amino)quinoline-3-carboxamide], the EC50 in assay [1] (setting [4]) is over 10000 nM. At PDK1 (setting [5]), the 50% inhibitory concentration (IC50) was over 5000 nM.
For `C[C@H](NC(=O)c1cc(S(C)(=O)=O)cnc1NCc1ccc(-c2ccc3ncnc(N)c3c2)s1)c1ccc(F)cc1` [Example 7.22.2, 2-({[5-(4-aminoquinazolin-6-yl)thiophen-2-yl]methyl}amino)-N-[(1S)-1-(4-fluorophenyl)ethyl]-5-(methylsulfonyl)pyridine-3-carboxamide] the same measures were under 1000 nM and 100 to 1000 nM.
Turning to `Nc1n[nH]c2ncc(-c3ccc(CNc4ncc(C(F)(F)F)cc4C(=O)NC4CCC4)cc3)cc12` [Example 299, 2-(4-(3-amino-1H-pyrazolo [3,4-b]pyridin-5-yl)benzylamino)-N-cyclobutyl-5-(trifluoromethyl)nicotinamide], the EC50 in assay [1] (setting [3]) lay within 1000 to 10000 nM. Besides, on PDK1 (inhibition of PDK1 in vitro), the IC50 is under 100 nM.
Turning to `Nc1ncnc2ccc(-c3ccc(CNc4ncccc4C(=O)Nc4ccc(F)c(F)c4)s3)cc12` [Example 3.24, 2-({[5-(4-aminoquinazolin-6-yl)thiophen-2-yl]methyl}amino)-N-(3,4-difluorophenyl)pyridine-3-carboxamide (TFA salt)], in assay [1] (setting [4]), the EC50 is 1000 to 10000 nM. In addition, the IC50 at PDK1 (setting [5]) was 100 to 1000 nM.
For `Cc1nc(/C=C2\C(=O)Nc3cc(/C=C/CNc4ncccc4C(=O)NCc4ccc(F)c(F)c4)ccc32)[nH]c1C` [Example 15.13, N-(3,4-Difluoro-benzyl)-2-((E)-3-{3-[1-(4,5-dimethyl-1H-imidazol-2-yl)-meth-(Z)-ylidene]-2-oxo-2,3-dihydro-1H-indol-6-yl}-allylamino)-nicotinamide], the 50% effective concentration (EC50) in assay [1] (setting [4]) is 1000 to 10000 nM. For the same molecule, at PDK1 (setting [5]), the concentration for half-maximal inhibition (IC50) is under 100 nM.
Turning to `C[C@H](NC(=O)c1nc(C#N)cnc1NCc1ccc(-c2cnc3c(c2)c(N)nn3C)cc1)c1ccc(F)c(F)c1` [Example 414, (S)-3-(4-(3-amino-1-methyl-1H-pyrazolo[3,4-b]pyridin-5-yl)benzylamino)-6-cyano-N-(1-(3,4-difluorophenyl)ethyl) pyrazine-2-carboxamide], the concentration giving a half-maximal response (EC50) in assay [1] (setting [3]) is 1000 to 10000 nM. The molecule further gave an IC50 against PDK1 (inhibition of PDK1 in vitro) of 1000 to 5000 nM.
With `N#Cc1cnc(NCc2ccc(-c3cnc4[nH]nc(N)c4c3)cc2)c(C(=O)Nc2ccc(F)cc2)c1` [Example 35, 2-(4-(3-amino-1H-pyrazolo[3,4-b]pyridin-5-yl)benzylamino)-5-cyano-N-(4-fluorophenyl) nicotinamide], the 50% effective concentration (EC50) in assay [1] (setting [4]) is under 1000 nM. The same molecule displayed an IC50 at PDK1 (setting [5]) of under 100 nM.
`O=C(NCc1ccc(C(F)(F)F)cc1)c1cccnc1NCc1ccc(-c2c[nH]c3ncccc23)s1` [Example 1.18]: in assay [1] (setting [4]), the EC50 was over 10000 nM. Besides, the IC50 against PDK1 (setting [5]) fell in the range of 1000 to 5000 nM.
On to `C[C@H](NC(=O)c1cc(C#N)cnc1NCc1ccc(-c2ccc(C(N)=O)nc2)cc1)c1ccc(F)cc1` [Example 114, (S)-5-(4-((5-cyano-3-(1-(4-fluorophenyl)ethylcarbamoyl)pyridin-2-ylamino)methyl)phenyl)picolinamide], for which, in assay [1] (setting [2]), the EC50 is over 10000 nM. The half-inhibitory concentration (IC50) on PDK1 (inhibition of PDK1 in vitro) lay in the range of 100 to 1000 nM.
In the case of `O=C(NCc1ccc(F)c(F)c1)c1cccnc1NCc1ccc(-c2cnc3[nH]ccc3c2)nc1` [Example 328], the half-maximal effective concentration (EC50) in assay [1] (setting [3]) was over 10000 nM. This molecule also showed a half-maximal inhibitory concentration (IC50) on PDK1 (inhibition of PDK1 in vitro) of under 100 nM.
For `C[C@H](NC(=O)c1cc(C#N)cnc1Nc1ccc(-c2cnc3[nH]nc(N)c3c2)cc1)c1ccc(F)cc1` [Example 424, (S)-2-(4-(3-amino-1H-pyrazolo[3,4-b]pyridin-5-yl)phenylamino)-5-cyano-N-(1-(4-fluorophenyl)ethyl)nicotinamide] the same measures were 1000 to 10000 nM and under 100 nM.
For `CCCc1n[nH]c2ncc(-c3ccc(CNc4ncc(C#N)cc4C(=O)N[C@@H](C)c4ccc(F)cc4)cc3)cc12` [Example 147, (S)-5-cyano-N-(1-(4-fluorophenyl)ethyl)-2-(4-(3-propyl-1H-pyrazolo[3,4-b]pyridin-5-yl)benzyl-amino)nicotinamide] the same measures were 1000 to 10000 nM and under 100 nM.
The like results for `C[C@H](NC(=O)c1nc(C#N)cnc1NCc1ccc(-c2cn(CCN)c3ncnc(N)c23)cc1)c1ccc(F)c(F)c1` [Example 319, (S)-3-(4-(4-amino-7-(2-aminoethyl)-7H-pyrrolo[2,3-d]pyrimidin-5-yl)benzylamino)-6-cyano-N-(1-(3,4-difluoro-phenyl)ethyl)pyrazine-2-carboxamide] were, in that order, under 1000 nM and under 100 nM.
As for `Nc1ncnc2[nH]cc(-c3ccc(CNc4ncccc4C(=O)NCc4ccc(F)c(F)c4)s3)c12` [Example 4.8, 2-(((5-(4-amino-7H-pyrrolo[2,3-d]pyrimidin-5-yl)thiophen-2-yl)methyl)amino)-N-(3,4-difluorobenzyl)nicotinamide], the 50% effective concentration (EC50) in assay [1] (setting [4]) is under 1000 nM. Also, on PDK1 (setting [5]), the IC50 was under 100 nM.
For the molecule `C[C@H](NC(=O)c1cc(C#N)cnc1NCC#Cc1cnc2[nH]ncc2c1)c1ccc(F)cc1` [Example 249, (S)-2-(3-(1H-pyrazolo[3,4-b]pyridin-5-yl)prop-2-ynylamino)-5-cyano-N-(1-(4-fluorophenyl)ethyl)nicotinamide], the concentration for a half-maximal effect (EC50) in assay [1] (setting [3]) is over 10000 nM. The 50% inhibitory concentration (IC50) on PDK1 (inhibition of PDK1 in vitro) is over 5000 nM.
On to `Nc1ncnc2c1c(-c1ccc(CNc3ncc(C(F)(F)F)cc3C(=O)Nc3ccc(F)cc3)cc1)cn2CCCO` [Example 322, 2-(4-(4-amino-7-(3-hydroxypropyl)-7H-pyrrolo [2,3-d]pyrimidin-5-yl)benzylamino)-N-(4-fluorophenyl)-5-(trifluoromethyl)nicotinamide], for which the half-maximal effective concentration (EC50) in assay [1] (setting [3]) was under 1000 nM. The same molecule had a half-inhibitory concentration (IC50) against PDK1 (inhibition of PDK1 in vitro) of under 100 nM.
Consider `CNc1ncc2cc(O[C@H](C)CNc3ncc(C#N)nc3C(=O)N[C@@H](C)c3ccc(F)c(F)c3)ccc2n1` [Example 252, 6-cyano-N-((S)-1-(3,4-difluorophenyl)ethyl)-3-((R)-2-(2-(methylamino)quinazolin-6-yloxy)propylamino)pyrazine-2-carboxamide], for which, in assay [1] (setting [2]), the EC50 was in the range of 1000 to 10000 nM. Further, the half-inhibitory concentration (IC50) against PDK1 (inhibition of PDK1 in vitro) fell in the range of 100 to 1000 nM.
With `C[C@H](NC(=O)c1nc(C#N)cnc1NCc1ccc(-c2cnc(N)c(CC3CCNC3)n2)cc1)c1ccc(F)c(F)c1` (stereo partly drawn) [Example 187, 3-[4-(5-Amino-6-pyrrolidin-3-ylmethyl-pyrazin-2-yl)-benzylamino]-6-cyano-pyrazine-2-carboxylic acid [(S)-1-(3,4-difluoro-phenyl)-ethyl]-amide], in assay [1] (setting [3]), the EC50 was under 1000 nM. The molecule further gave an IC50 on PDK1 (inhibition of PDK1 in vitro) of under 100 nM.
The like results for `COC(=O)c1cc(-c2ccc(CNc3ncc(C#N)cc3C(=O)N[C@@H](C)c3ccc(F)cc3)cc2)cnc1N` [Example 103, (S)-methyl 2-amino-5-(4-((5-cyano-3-(1-(4-fluorophenyl)ethylcarbamoyl)pyridin-2-ylamino)methyl)phenyl)nicotinate] were, in that order, 1000 to 10000 nM and under 100 nM.
On to `C[C@@H](c1ccc(F)c(F)c1)n1cnc2ccnc(NCc3ccc(-c4cc5c(N)ncnc5cn4)s3)c2c1=O` [Example 7.11, 5-({[5-(4-aminopyrido [3,4-d]pyrimidin-6-yl)thiophen-2-yl]methyl}amino)-3-[(1S)-1-(3,4-difluorophenyl)ethyl] pyrido[4,3-d]pyrimidin-4(3H)-one], for which, in assay [1] (PC-3, 2 h, inhibition of P308 Akt in PC-3 cells, MSD), the EC50 is under 1000 nM. The same molecule displayed an IC50 against PDK1 (setting [5]) of 100 to 1000 nM.
